Data taken from patent US11084833B2, “Antibacterial agents against D,D- and L,D-transpeptidases” (priority 2016, dated 2021).
Like-named read-outs stand apart in the source and are kept apart here.

Legend:
[1] = test system: Enterobacter cloacae; assay: Broth dilution MIC; assay type: cell-based; settings: overnight incubation
[2] = test system: Methicillin Resistant Staphylococcus aureus; assay: Broth dilution MIC; assay type: cell-based; settings: overnight incubation
[3] = test system: Actinobacter baumannii 6 M-1b; assay: Broth dilution MIC; assay type: cell-based; settings: overnight incubation
[4] = test system: Mycobacterium tuberculosis; assay: Broth dilution MIC; assay type: cell-based; settings: 336 h, end point reading at 2 weeks
[5] = test system: Klebsiella pneumoniae; assay: Broth dilution MIC; assay type: cell-based; settings: overnight incubation
[6] = test system: Pseudomonas aeruginosa; assay: Broth dilution MIC; assay type: cell-based; settings: overnight incubation
[7] = test system: Methicillin Susceptible Staphylococcus aureus; assay: Broth dilution MIC; assay type: cell-based; settings: overnight incubation
[8] = target: T1, LdtMt2 (Mycobacterium tuberculosis, UniProt I6Y9J2); assay: Nitrocefin hydrolyzing activity after incubation with β-lactams; assay type: biochemical, M. tuberculosis
T1 sequence (I6Y9J2 35-408 limits assumed): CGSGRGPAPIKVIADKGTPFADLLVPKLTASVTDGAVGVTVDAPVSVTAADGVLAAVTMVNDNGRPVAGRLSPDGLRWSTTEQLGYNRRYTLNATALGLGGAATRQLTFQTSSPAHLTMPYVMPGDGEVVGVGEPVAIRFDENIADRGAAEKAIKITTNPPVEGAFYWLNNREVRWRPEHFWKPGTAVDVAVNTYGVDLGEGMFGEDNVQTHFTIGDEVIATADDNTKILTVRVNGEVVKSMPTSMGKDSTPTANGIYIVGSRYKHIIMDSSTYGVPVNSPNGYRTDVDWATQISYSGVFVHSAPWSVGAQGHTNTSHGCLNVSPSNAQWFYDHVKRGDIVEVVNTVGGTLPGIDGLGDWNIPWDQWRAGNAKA

[9] = target: T1, LdtMt2; assay: biochemical; set-up: species or system M. tuberculosis; settings: non-linear regression, read-out: kinact/Kapp ratio (converted)
[10] = test system: M. tuberculosis H37Rv; assay type: in vivo, BALB/c mice; settings: for gross lung lesions: either alone or in combination with rifampin, end of treatment
[11] = target: T1, LdtMt2; assay type: binding, M. tuberculosis; settings: for acyl-enzyme adduct mass: UPLC-MS
[12] = test system: dehydropepetidase-1 (DHP-1); settings: cited from earlier work
[13] = target: penicillin binding protein DacB2 (Mycobacterium tuberculosis, UniProt I6Y204); assay: UPLC-MS analysis of acyl-enzyme adducts
Sequence of penicillin binding protein DacB2 (I6Y204 23-291): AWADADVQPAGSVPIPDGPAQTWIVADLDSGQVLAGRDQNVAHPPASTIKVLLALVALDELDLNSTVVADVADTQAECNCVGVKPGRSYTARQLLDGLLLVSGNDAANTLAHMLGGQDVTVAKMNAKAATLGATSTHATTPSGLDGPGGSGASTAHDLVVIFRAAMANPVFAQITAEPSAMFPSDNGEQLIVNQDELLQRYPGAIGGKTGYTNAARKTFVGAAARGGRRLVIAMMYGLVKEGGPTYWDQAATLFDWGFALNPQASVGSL

[14] = target: T1, LdtMt2; assay type: binding, M. tuberculosis
[15] = target: T2, LdtMt1 (Mycobacterium tuberculosis, UniProt O53638); assay type: binding, M. tuberculosis
T2 sequence (O53638 29-251): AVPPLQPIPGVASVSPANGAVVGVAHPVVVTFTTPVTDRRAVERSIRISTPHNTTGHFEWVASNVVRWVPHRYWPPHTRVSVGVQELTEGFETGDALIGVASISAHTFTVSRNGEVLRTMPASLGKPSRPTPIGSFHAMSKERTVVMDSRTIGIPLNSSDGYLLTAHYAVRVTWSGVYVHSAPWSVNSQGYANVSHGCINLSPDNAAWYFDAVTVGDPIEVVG

[16] = test system: LdtPa; assay: UPLC-MS analysis of acyl-enzyme adducts; assay type: binding, Pseudomonas aeruginosa; settings: over both the non-carbapenems and carbapenems tested
[17] = test system: LdtMab1; assay: Isothermal titration calorimetry; assay type: binding, M. abscessus
[18] = target: T2, LdtMt1; assay: UPLC-MS analysis of acyl-enzyme adducts; assay type: binding, M. tuberculosis
[19] = test system: LdtMab2; assay: UPLC-HRMS analysis of L,D-transpeptidase/β-lactam adducts; assay type: binding, Mycobacterium abscessus; settings: over both the non-carbapenems and carbapenems tested
[20] = test system: LdtKp; assay: as above; assay type: binding, Klebsiella pneumoniae; settings: over both the non-carbapenems and carbapenems tested
[21] = test system: LdtCl; assay: as above; assay type: binding, Enterobacter cloacae; settings: over both the non-carbapenems and carbapenems tested
[22] = test system: LdtMab2; assay type: binding, M. abscessus
[23] = test system: LdtMab1; assay: UPLC-MS analysis of acyl-enzyme adducts; assay type: binding, Mycobacterium abscessus; settings: over both the non-carbapenems and carbapenems tested
[24] = Enterobacter cloacae, read-out: MIC
[25] = following incubation with β-lactam
[26] = equimolar mixture of faropenem, doripenem, biapenem and tebipenem

## C[C@@H](O)C1C(=O)N2C(C(=O)[O-])=C(SC3CN(C4=NCCS4)C3)SC12.[K+] (stereo in doubt) [Compound T405, Potassium (5S,6R)-3-((1-(4,5-dihydrothiazol-2-yl)azetidin-3-yl)thio)-6-((R)-1-hydroxyethyl)-7-oxo-4-thia-1-azabicyclo[3.2.0]hept-2-ene-2-carboxylate]
[1]; [24]
  MIC: 0.25 to 0.5 µg/mL
[2]
  MIC: 0.03 to 0.06 µg/mL
[3]
  MIC: 4 to 8 µg/mL
[4]
  MIC: 0.5 to 1 µg/mL
[5]
  MIC: 0.125 to 0.25 µg/mL
[6]
  MIC: 4 to 8 µg/mL
[7]
  MIC: 0.03 to 0.06 µg/mL

## C[C@@H](O)[C@H]1C(=O)N2C(C(=O)[O-])=C(SC3CNC(CNS(N)(=O)=O)C3)S[C@H]12.[K+] (stereo in doubt) [Compound T409, Potassium (5R,6S)-6-((R)-1-hydroxyethyl)-7-oxo-3-(((3R,5R)-5-((sulfamoylamino)methyl)pyrrolidin-3-yl)thio)-4-thia-1-azabicyclo[3.2.0]hept-2-ene-2-carboxylate]
[4]
  MIC: 0.5 to 1 µg/mL

## C[C@@H](O)[C@H]1C(=O)N2C(C(=O)[O-])=C(SC3CNC(C(=O)N(C)C)C3)S[C@H]12.[K+] (stereo in doubt) [Compound T410, Potassium (5R,6S)-3-(((3R,5R)-5-(dimethylcarbamoyl)pyrrolidin-3-yl)thio)-6-((R)-1-hydroxyethyl)-7-oxo-4-thia-1-azabicyclo[3.2.0]hept-2-ene-2-carboxylate]
[1]; [24]
  MIC: 1 to 2 µg/mL
[3]
  MIC: 0.5 to 1 µg/mL
[4]
  MIC: 8 to 16 µg/mL
[5]
  MIC: 2 to 4 µg/mL
[6]
  MIC: 0.5 to 1 µg/mL

## CCCSC1=C(C(=O)[O-])N2C(=O)[C@H]([C@@H](C)O)[C@H]2S1.[K+] [Compound T406, Potassium (5R,6S)-6-((R)-1-hydroxyethyl)-3-propylthio-7-oxo-4-thia-1-azabicyclo[3.2.0]hept-2-ene-2-carboxylate]
[1]; [24]
  MIC: 4 to 8 µg/mL
[3]
  MIC: 4 to 8 µg/mL
[4]
  MIC: 0.5 to 1 µg/mL
[5]
  MIC: 0.25 to 0.5 µg/mL

## C[C@@H](O)[C@H]1C(=O)N2C(C(=O)[O-])=C(SCCO)S[C@H]12.[K+] [Compound T407, Potassium (5R,6S)-6-((R)-1-hydroxyethyl)-3-((2-hydroxyethyl)thio)-7-oxo-4-thia-1-azabicyclo[3.2.0]hept-2-ene-2-carboxylate]
[4]
  MIC: 2 to 4 µg/mL
[5]
  MIC: 8 to 16 µg/mL

## COC(=O)CCSC1=C(C(=O)[O-])N2C(=O)[C@H]([C@@H](C)O)[C@H]2S1.[K+] [Compound T408, Potassium (5R,6S)-6-((R)-1-hydroxyethyl)-3-((3-methoxy-3-oxopropyl)thio)-7-oxo-4-thia-1-azabicyclo[3.2.0]hept-2-ene-2-carboxylate]
[1]; unit as printed for T408
  MIC: 4-8 g/mL
[3]
  MIC: 16 to 32 µg/mL
[4]
  MIC: 0.5 to 1 µg/mL
[5]
  MIC: 8 to 16 µg/mL

## C[C@@H](O)[C@H]1C(=O)N2C(C(=O)[O-])=C(SC3Cn4cnc[n+]4C3)[C@H](C)[C@H]12 (stereo partly drawn) [biapenem]
[8]; [25]
  inhibition of nitrocefin hydrolysis: robustly inhibited
[9]
  kinact/KI: 3830 M⁻¹ s⁻¹
[10]
  gross lung lesions: prevented the development of gross lung lesions
[10]; mouse, in vivo
  activity on bacterial load (CFUs) in the lungs: bacteriostatic activity
[11]
  adduct formation: Stable adducts could be detected
[12]
  inactivation by DHP-1: resistant to inactivation by DHP-1

## CC1(C)S[C@@H]2[C@H](NC(=O)C(C(=O)O)c3ccccc3)C(=O)N2[C@H]1C(=O)O (stereo partly drawn) [carbenicillin]
[13]; UPLC-MS
  adduct mass: +379 Da
[11]
  adduct formation: failed to bind

## CC(=O)OCC1=C(C(=O)O)N2C(=O)[C@@H](NC(=O)Cc3cccs3)[C@H]2SC1 [cephalothin]
[8]
  inhibition of nitrocefin hydrolysis: comparable inhibitory activity

## C[C@@H](O)[C@H]1C(=O)N2C(C(=O)O)=C(S[C@@H]3CN[C@H](CNS(N)(=O)=O)C3)[C@H](C)[C@H]12 [doripenem]
[8]; [25]
  inhibition of nitrocefin hydrolysis: robustly inhibited
[11]
  acyl-enzyme adduct mass: 123 Da

## C[C@@H](O)[C@H]1C(=O)N2C(C(=O)O)=C([C@H]3CCCO3)S[C@H]12 [faropenem]
[14]
  ITC binding: single-modality binding
[15]
  ITC binding: single-modality binding
[8]; [25]
  inhibition of nitrocefin hydrolysis: robustly inhibited
[16]
  preferential reaction in β-lactam mixtures: preferentially reacted with faropenem
[13]
  species detected in competition assay: the only species detected
[17]
  ITC binding: Binding
[18]; UPLC-MS
  acyl-enzyme adduct mass: +86 Da
[18]; [26]
  adduct detected in competition assay: the only adduct detected
[19]
  preferential reaction in β-lactam mixtures: preferentially reacted with faropenem
[20]
  preferential reaction in β-lactam mixtures: preferentially reacted with faropenem
[21]
  preferential reaction in β-lactam mixtures: preferentially reacted with faropenem
[22]
  ITC binding: Binding
[10]
  gross lung lesions: prevented the development of gross lung lesions
[11]
  acyl-enzyme adduct mass: +86 Da
[11]; [26]
  adduct detected in competition assay: the only adduct detected
[23]
  preferential reaction in β-lactam mixtures: preferentially reacted with faropenem

## C[C@@H](O)[C@H]1C(=O)N2C(C(=O)O)=C(SC3CN(C4=NCCS4)C3)[C@H](C)[C@H]12 [tebipenem]
[14]
  ITC binding: single-modality binding
[15]
  ITC binding: single-modality binding
[17]
  ITC binding: Binding
[22]
  ITC binding: Binding
